Source: US10683299B2, “Pyrazolopyrazine and triazolopyrazine compounds for the treatment of infectious diseases” (Hoffmann-La Roche Inc., priority 2017, dated 2020)

The molecules below were run on HBV replication in HepG2.2.15 cells (assay: HBV inhibition assay in HepG2.2.15 cells (extracellular HBV DNA by qPCR)). Conditions: Hepatitis B virus, HepG2.2.15, 120 h, five days after compound treatment, extracellular HBV DNA in culture supernatant by qPCR, read-out: EC50 (effective compound concentration at which HBV replication was inhibited by 50%).
Type: cell-based, Hepatitis B virus
Description: HepG2.2.15 is a stably-transfected cell line containing the HBV genome. It is derived from the hepatoblastoma cell line Hep G2 (American Type Culture Collection, ATCC® HB-8065™) by the published procedures described in reference: M A Selles et al. Proc. Natl. Acad. Sci. USA 1987, 84, 1005-1009. The cell line was maintained in Dulbecco's modified Eagle's medium and nutrient mixture F-12 (DMEM/F-12, Gibco, Cat. #: 11320-033) supplemented with 10% fetal bovine serum (Gibco, Cat. #:10099-141), 100 U/mL penicillin, 100 μg/mL streptomycin (Gibco, Cat. #:15140-122), and 0.3 mg/mL of G418 Sulfate (Gibco, Cat. #: 10131-027).
HepG2.2.15 cells were seeded into 96-well plates at a density of 3×10^4 cells per well in culture media of 100 μL DMEM/F-12 supplemented with 2.5% fetal bovine serum, 100 U/mL penicillin, 100 μg/mL streptomycin and cultured overnight at 37° C. The test compounds were serially half-log diluted in DMSO, then diluted 100 times in culture media. 100 μL culture media containing diluted compounds were added into the plates to reach 0.5% final concentration of DMSO in every well. Five days after compound treatment, culture supernatant was collected for further analysis.
For quantitative PCR detection of extracellular HBV DNA, culture supernatant was processed by 500 μg/mL Proteinase K (Sigma, Cat. #:P2308) digestion at 50° C. for 1 hour. After heat inactivation of the enzyme at 95° C. for 15 minutes, the samples were subjected to HBV DNA quantification by qPCR. The effective compound concentration at which HBV replication was inhibited by 50% (EC50) was determined.

Point of comparison: `C[C@H]1Cn2ncc(N3CCC[S+]3[O-])c2CN1C(=O)Nc1cc(F)c(F)c(F)c1` (stereo partly drawn) [Example 17, (6S)-6-methyl-3-(1-oxo-1,2-thiazolidin-2-yl)-N-(3,4,5-trifluorophenyl)-6,7-dihydro-4H-pyrazolo[1,5-a]pyrazine-5-carboxamide], EC50 86 nM. Against it:
- C[C@H]1Cn2ncc(N3CCCS3(=O)=O)c2CN1C(=O)Nc1cc(F)c(F)c(F)c1 [Example 1, (6S)-3-(1,1-dioxo-1,2-thiazolidin-2-yl)-6-methyl-N-(3,4,5-trifluorophenyl)-6,7-dihydro-4H-pyrazolo[1,5-a]pyrazine-5-carboxamide] — 19-fold lower, 4.6 nM
- C[C@H]1Cn2ncc(N3CCCS3(=O)=O)c2CN1C(=O)Nc1ccnc(Cl)c1 [Example 2, (6S)—N-(2-chloro-4-pyridyl)-3-(1,1-dioxo-1,2-thiazolidin-2-yl)-6-methyl-6,7-dihydro-4H-pyrazolo[1,5-a]pyrazine-5-carboxamide] — within 1.5-fold, 79 nM
- C[C@H]1Cn2ncc(N3CCCS3(=O)=O)c2CN1C(=O)Nc1ccc(Cl)c(F)c1 [Example 3, (6S)—N-(4-chloro-3-fluoro-phenyl)-3-(1,1-dioxo-1,2-thiazolidin-2-yl)-6-methyl-6,7-dihydro-4H-pyrazolo[1,5-a]pyrazine-5-carboxamide] — 2.4-fold lower, 36 nM
- Cc1cc(NC(=O)N2Cc3c(N4CCCS4(=O)=O)cnn3C[C@@H]2C)ccc1F [Example 4, (6S)-3-(1,1-dioxo-1,2-thiazolidin-2-yl)-N-(4-fluoro-3-methyl-phenyl)-6-methyl-6,7-dihydro-4H-pyrazolo[1,5-a]pyrazine-5-carboxamide] — 14-fold lower, 6 nM
- C[C@H]1Cn2ncc(N3CCCS3(=O)=O)c2CN1C(=O)Nc1ccc(F)c(C#N)c1 [Example 5, (6S)—N-(3-cyano-4-fluoro-phenyl)-3-(1,1-dioxo-1,2-thiazolidin-2-yl)-6-methyl-6,7-dihydro-4H-pyrazolo[1,5-a]pyrazine-5-carboxamide] — 6.1-fold lower, 14 nM
- C[C@H]1Cn2ncc(N3CCCS3(=O)=O)c2CN1C(=O)Nc1ccnc(C(F)F)c1 [Example 6, (6S)—N-[2-(difluoromethyl)-4-pyridyl]-3-(1,1-dioxo-1,2-thiazolidin-2-yl)-6-methyl-6,7-dihydro-4H-pyrazolo[1,5-a]pyrazine-5-carboxamide] — within 1.5-fold, 83 nM
- C[C@H]1Cn2ncc(N3CCCS3(=O)=O)c2CN1C(=O)Nc1ccc(F)c(C(F)(F)F)c1 [Example 7, (6S)-3-(1,1-dioxo-1,2-thiazolidin-2-yl)-N-[4-fluoro-3-(trifluoromethyl)phenyl]-6-methyl-6,7-dihydro-4H-pyrazolo[1,5-a]pyrazine-5-carboxamide] — 8.8-fold lower, 9.8 nM
- C[C@H]1Cn2ncc(N3CCCS3(=O)=O)c2CN1C(=O)Nc1ccccc1F [Example 8, (6S)-3-(1,1-dioxo-1,2-thiazolidin-2-yl)-N-(2-fluorophenyl)-6-methyl-6,7-dihydro-4H-pyrazolo[1,5-a]pyrazine-5-carboxamide] — 3.5-fold higher, 300 nM
- C[C@H]1Cn2ncc(N3CCCS3(=O)=O)c2CN1C(=O)Nc1ccc2ncsc2c1 [Example 9, (6S)—N-(1,3-benzothiazol-6-yl)-3-(1,1-dioxo-1,2-thiazolidin-2-yl)-6-methyl-6,7-dihydro-4H-pyrazolo[1,5-a]pyrazine-5-carboxamide] — 3-fold higher, 260 nM
- C[C@H]1Cn2ncc(N3CCCS3(=O)=O)c2CN1C(=O)Nc1ccsc1 [Example 10, (6S)-3-(1,1-dioxo-1,2-thiazolidin-2-yl)-6-methyl-N-(3-thienyl)-6,7-dihydro-4H-pyrazolo[1,5-a]pyrazine-5-carboxamide] — 6.6-fold higher, 570 nM
- C[C@H]1Cn2ncc(N3CCCS3(=O)=O)c2CN1C(=O)NCc1ccccc1 [Example 11, (6S)—N-benzyl-3-(1,1-dioxo-1,2-thiazolidin-2-yl)-6-methyl-6,7-dihydro-4H-pyrazolo[1,5-a]pyrazine-5-carboxamide] — within 1.5-fold, 110 nM
- C[C@H]1Cn2ncc(N3CC4COCCN4S3(=O)=O)c2CN1C(=O)Nc1cc(F)c(F)c(F)c1 (stereo partly drawn) [Example 12, (6S)-3-(1,1-dioxo-3a,4,6,7-tetrahydro-3H-[1,2,5]thiadiazolo[3,2-c][1,4]oxazin-2-yl)-6-methyl-N-(3,4,5-trifluorophenyl)-6,7-dihydro-4H-pyrazolo[1,5-a]pyrazine-5-carboxamide] — 2.1-fold lower, 40 nM
- C[C@H]1Cn2ncc(N3CCN(C(=O)OCc4ccccc4)CS3(=O)=O)c2CN1C(=O)Nc1cc(F)c(F)c(F)c1 [Example 13, Benzyl 2-[(6S)-6-methyl-5-[(3,4,5-trifluorophenyl)carbamoyl]-6,7-dihydro-4H-pyrazolo[1,5-a]pyrazin-3-yl]-1,1-dioxo-1,2,5-thiadiazinane-5-carboxylate] — 1.7-fold lower, 52 nM
- C[C@H]1Cn2ncc(N3CC4CCC(=O)N4CS3(=O)=O)c2CN1C(=O)Nc1cc(F)c(F)c(F)c1 (stereo partly drawn) [Example 14, (6S)-6-methyl-N-(3,4,5-trifluorophenyl)-3-(3,3,6-trioxo-4,7,8,8a-tetrahydro-1H-pyrrolo[2,1-d][1,2,5]thiadiazin-2-yl)-6,7-dihydro-4H-pyrazolo[1,5-a]pyrazine-5-carboxamide] — 3.1-fold lower, 28 nM
- CC(=O)N1CCN(c2cnn3c2CN(C(=O)Nc2cc(F)c(F)c(F)c2)[C@@H](C)C3)S(=O)(=O)C1 [Example 15, (6S)-3-(5-acetyl-1,1-dioxo-1,2,5-thiadiazinan-2-yl)-6-methyl-N-(3,4,5-trifluorophenyl)-6,7-dihydro-4H-pyrazolo[1,5-a]pyrazine-5-carboxamide] — 3.3-fold lower, 26 nM
- CC1CCS(=O)(=O)N1c1cnn2c1CN(C(=O)Nc1cc(F)c(F)c(F)c1)[C@@H](C)C2 (stereo partly drawn) [Example 16, (6S)-6-methyl-3-(3-methyl-1,1-dioxo-1,2-thiazolidin-2-yl)-N-(3,4,5-trifluorophenyl)-6,7-dihydro-4H-pyrazolo[1,5-a]pyrazine-5-carboxamide] — 9.6-fold lower, 9 nM
- C[C@H]1Cn2ncc(N3CC(O)CS3(=O)=O)c2CN1C(=O)Nc1cc(F)c(F)c(F)c1 (stereo partly drawn) [Example 18, (6S)-3-(4-hydroxy-1,1-dioxo-1,2-thiazolidin-2-yl)-6-methyl-N-(3,4,5-trifluorophenyl)-6,7-dihydro-4H-pyrazolo[1,5-a]pyrazine-5-carboxamide] — 7.2-fold lower, 12 nM
- C[C@H]1Cn2ncc(N3CCNS3(=O)=O)c2CN1C(=O)Nc1cc(F)c(F)c(F)c1 [Example 19, (6S)-3-(1,1-dioxo-1,2,5-thiadiazolidin-2-yl)-6-methyl-N-(3,4,5-trifluorophenyl)-6,7-dihydro-4H-pyrazolo[1,5-a]pyrazine-5-carboxamide] — 6.1-fold lower, 14 nM
- C[C@H]1Cn2ncc(N3CCN(C)S3(=O)=O)c2CN1C(=O)Nc1cc(F)c(F)c(F)c1 [Example 20, (6S)-6-methyl-3-(5-methyl-1,1-dioxo-1,2,5-thiadiazolidin-2-yl)-N-(3,4,5-trifluorophenyl)-6,7-dihydro-4H-pyrazolo[1,5-a]pyrazine-5-carboxamide] — 5.1-fold lower, 17 nM
- C[C@H]1Cn2ncc(N3[C@@H](C)CS3(=O)=O)c2CN1C(=O)Nc1cc(F)c(F)c(F)c1 [Example 21, (6S)-6-methyl-3-[(3S)-3-methyl-1,1-dioxo-thiazetidin-2-yl]-N-(3,4,5-trifluorophenyl)-6,7-dihydro-4H-pyrazolo[1,5-a]pyrazine-5-carboxamide] — 1.9-fold lower, 46 nM
- C[C@H]1Cn2ncc(N3[C@@H](C)CNS3(=O)=O)c2CN1C(=O)Nc1cc(F)c(F)c(F)c1 [Example 22, (6S)-6-methyl-3-[(3S)-3-methyl-1,1-dioxo-1,2,5-thiadiazolidin-2-yl]-N-(3,4,5-trifluorophenyl)-6,7-dihydro-4H-pyrazolo[1,5-a]pyrazine-5-carboxamide] — 3.2-fold lower, 27 nM
- CC1NS(=O)(=O)N(c2cnn3c2CN(C(=O)Nc2cc(F)c(F)c(F)c2)[C@@H](C)C3)[C@H]1C (stereo partly drawn) [Example 23, (6S)-3-[(3S)-3,4-dimethyl-1,1-dioxo-1,2,5-thiadiazolidin-2-yl]-6-methyl-N-(3,4,5-trifluorophenyl)-6,7-dihydro-4H-pyrazolo[1,5-a]pyrazine-5-carboxamide] — 1.7-fold lower, 52 nM
- C[C@H]1Cn2ncc(N3CCOCS3(=O)=O)c2CN1C(=O)Nc1cc(F)c(F)c(F)c1 [Example 24, (6S)-3-(3,3-dioxo-1,3,4-oxathiazinan-4-yl)-6-methyl-N-(3,4,5-trifluorophenyl)-6,7-dihydro-4H-pyrazolo[1,5-a]pyrazine-5-carboxamide] — 7.8-fold lower, 11 nM

Same assay, conditions: five days after compound treatment, extracellular HBV DNA in culture supernatant by qPCR, read-out: EC50 (effective compound concentration at which HBV replication was inhibited by 50%)

Point of comparison: `CC1Cn2nnc(N3CCCS3(=O)=O)c2CN1C(=O)Nc1cc(F)c(F)c(F)c1` (single isomer, unassigned) [Example 33-2, 3-(1,1-dioxo-1,2-thiazolidin-2-yl)-6-methyl-N-(3,4,5-trifluorophenyl)-6,7-dihydro-4H-triazolo[1,5-a]pyrazine-5-carboxamide], EC50 410 nM. Against it:
- CC1Cn2nnc(N3CCCS3(=O)=O)c2CN1C(=O)Nc1cc(F)c(F)c(F)c1 (single isomer, unassigned) [Example 33-1, 3-(1,1-dioxo-1,2-thiazolidin-2-yl)-6-methyl-N-(3,4,5-trifluorophenyl)-6,7-dihydro-4H-triazolo[1,5-a]pyrazine-5-carboxamide] — 17-fold lower, 24 nM
